Results: patent publication EP0497314A1, “Use of azapirones in attention deficit hyperactivity disorder” (Bristol-Myers Squibb Company, priority 1991, dated 1992)
Structures can show the parent of a compound that is named as a salt. Marks after values point to notes of the source that are not given here.

Key:
[1] = test system: fronto-occipital cortex of the cat; test: Quantitative EEG, fronto-occipital cat cortex, subcutaneous administration; assay type: in vivo, cats; settings: for group percent change in electrical energy from pre-drug control, Δ band / mean change ± S.E. in electrical energy from pre-drug control, Δ band / group percent change in electrical energy from pre-drug control, α band / mean change ± S.E. in electrical energy from pre-drug control, α band / group percent change in electrical energy from pre-drug control, β band / mean change ± S.E. in electrical energy from pre-drug control, β band / group percent change in electrical energy from pre-drug control, γ band / mean change ± S.E. in electrical energy from pre-drug control, γ band / group percent change in electrical energy from pre-drug control, θ band / mean change ± S.E. in electrical energy from pre-drug control, θ band: fronto-occipital cat cortex; for group percent change in electrical energy from pre-drug control, Δ band / mean change ± S.E. in electrical energy from pre-drug control, Δ band: Δ = 0.05-35 Hz; for group percent change in electrical energy from pre-drug control, α band / mean change ± S.E. in electrical energy from pre-drug control, α band: α= 7-13 Hz; for group percent change in electrical energy from pre-drug control, β band / mean change ± S.E. in electrical energy from pre-drug control, β band: β= 13-25 Hz; for group percent change in electrical energy from pre-drug control, γ band / mean change ± S.E. in electrical energy from pre-drug control, γ band: γ= 25-40 Hz; for group percent change in electrical energy from pre-drug control, θ band / mean change ± S.E. in electrical energy from pre-drug control, θ band: θ= 3.5-7.0 Hz
Source text: This unique combination of activity may render buspirone useful in the treatment of childhood hyperkinesis which has been reported to respond to both selected phenothiazine and stimulant drugs. • (b) Adult mongrel female cats weighing 2.5-4.0 kg were implanted with EEG recording electrodes. Recording sites were as follows: fronto-occipital cortex, basal amygdala and ventral hippocampus.
Animals were individually held in canvas feline restraining bags for EEG recording. The EEG of each brain area was recorded on a separate channel. The instrumentation filtered each channel of EEG and analog data into five distinct frequency bands: Δ=0.5-3.5 Hz, ϑ=3.5-7.0 Hz, α=7-13 Hz, β=13-25 Hz and γ=25-40 Hz. The EEG analyzer then integrated the filtered waveforms and sent pulses to an associated computer at a rate proportional to the electrical energy of each band. Data collecting procedures were essentially the same as reported in Example 1. However, groups of six animals each were used and all drugs were administered subcutaneously in saline solution as their respective salts, but all dosages were calculated as the free base. Recording was started 30 minutes after injection to insure adequate drug absorption for peak activity.
Drug-induced EEG changes were determined by comparing the post-treatment data to the pre-treatment control in the same animal. Statistical analysis was performed on change from control, in instrument counts, using multiple Student-t-paired-comparison test with P≦0.05 (Table 2). However, for clarity data are also presented as percent change from control (Figures 3, 4 and 5).
The data in Table 2 are drug-induced changes resulting from the minimum and higher doses of each compound required to elicit the EEG profile characteristic of that particular drug.

rabbit cortex = test: Quantitative EEG, rabbit cortex, intravenous administration; assay type: in vivo, rabbits; settings: for group percent change in electrical energy from pre-drug control, Δ band / mean change ± S.E. in electrical energy from pre-drug control, Δ band / group percent change in electrical energy from pre-drug control, α band / mean change ± S.E. in electrical energy from pre-drug control, α band / group percent change in electrical energy from pre-drug control, β band / mean change ± S.E. in electrical energy from pre-drug control, β band / group percent change in electrical energy from pre-drug control, γ band / mean change ± S.E. in electrical energy from pre-drug control, γ band / group percent change in electrical energy from pre-drug control, θ band / mean change ± S.E. in electrical energy from pre-drug control, θ band: rabbit cortex; for group percent change in electrical energy from pre-drug control, Δ band / mean change ± S.E. in electrical energy from pre-drug control, Δ band: Δ = 0.5-3.5 Hz; for group percent change in electrical energy from pre-drug control, α band / mean change ± S.E. in electrical energy from pre-drug control, α band: α= 7-13 Hz; for group percent change in electrical energy from pre-drug control, β band / mean change ± S.E. in electrical energy from pre-drug control, β band: β= 13-25 Hz; for group percent change in electrical energy from pre-drug control, γ band / mean change ± S.E. in electrical energy from pre-drug control, γ band: γ= 25-40 Hz; for group percent change in electrical energy from pre-drug control, θ band / mean change ± S.E. in electrical energy from pre-drug control, θ band: θ= 3.5-7.0 Hz
Description: At least 2 weeks were allowed for recovery before beginning experimentation.
Groups of four animals each were individually restrained and connected to an EEG amplifier and frequency analyzer. The EEG of each animal was recorded on a separate channel. The instrumentation filtered each channel of EEG analog data into five distinct frequency bands: Δ=0.5-3.5 Hz, ϑ=3.5-7.0 Hz, α=7-13 Hz, β=13-25 Hz and γ=25-40 Hz. The EEG analyzer then integrated the filtered waveforms and sent pulses to an associated computer at a rate proportional to the electrical energy of each band. Thus, one computer print-out provided a cortical EEG profile for the entire group of four rabbits.
Data from a one-hour recording period were collected in four 15-minute periods, which provided additional information concerning both onset and time of peak effect of drug activity. However, in this report only the mean activity of the four data collection periods was considered since onset of drug activity was immediate and duration of action was at least one hour for all drugs studied. Drug-induced EEG changes were determined by comparing the post-treatment print-out to the pretreatment control in the same animal and statistical analysis was performed on change from control, in counts, using multiple Student-t paired-comparison tests with p≦0.05 (Table 1). However, for clarity data are also presented as percent change from control (Figures 1 and 2).
All drugs were administered intravenously in saline solution as their respective salts and all dosage calculations were based on the free base. Recording was started immediately after injection and animals were not used more often than once per week. Initial doses were reduced geometrically until a no-effect dose was determined for each drug. However, only the "no-effect" data and the data generated from the next higher dose are presented in this report since the shape of the EEG profile is not dose-related, as opposed to the magnitude of the response which is dose-related.

## COC(=O)C(c1ccccc1)C1CCCCN1 (stereo not drawn) [Methylphenidate HCl, methylphenidate]
[1]; Felis catus, sc, read-out: the minimum dose required to produce the EEG profile characteristic of that particular drug
  minimal effective dose: 0.25 mg/kg
[1]; cat cortex EEG, s.c.
  relative potency by comparing minimal doses required to elicit EEG profiles: equal potency
[1]; fronto-occipital cat cortex EEG, dose of free base
  the no-effect dose: 0.125† mg/kg, s.c.
[1]; 0.125 mg/kg free base s.c.
  group percent change in electrical energy from pre-drug control, Δ band: -22%
  mean change ± S.E. in electrical energy from pre-drug control, Δ band: -44 ± 18 instrument counts
  group percent change in electrical energy from pre-drug control, α band: -18%
  mean change ± S.E. in electrical energy from pre-drug control, α band: -24 ± 10 instrument counts
  group percent change in electrical energy from pre-drug control, β band: -2%
  mean change ± S.E. in electrical energy from pre-drug control, β band: -3 ± 5 instrument counts
  group percent change in electrical energy from pre-drug control, γ band: +7%
  mean change ± S.E. in electrical energy from pre-drug control, γ band: +6 ± 2 instrument counts
  group percent change in electrical energy from pre-drug control, θ band: -20%
  mean change ± S.E. in electrical energy from pre-drug control, θ band: -31 ± 11 instrument counts
[1]; 0.25 mg/kg free base s.c.
  group percent change in electrical energy from pre-drug control, Δ band: -14%
  mean change ± S.E. in electrical energy from pre-drug control, Δ band: -31 ± 18 instrument counts
  group percent change in electrical energy from pre-drug control, α band: -31%
  mean change ± S.E. in electrical energy from pre-drug control, α band: -39 ± 12 instrument counts
  group percent change in electrical energy from pre-drug control, β band: -9%
  mean change ± S.E. in electrical energy from pre-drug control, β band: -11 ± 4 instrument counts
  group percent change in electrical energy from pre-drug control, γ band: +9%
  mean change ± S.E. in electrical energy from pre-drug control, γ band: +7 ± 2 instrument counts
  group percent change in electrical energy from pre-drug control, θ band: -27%
  mean change ± S.E. in electrical energy from pre-drug control, θ band: -38 ± 16 instrument counts
[1]; 1.0 mg/kg free base s.c.
  group percent change in electrical energy from pre-drug control, Δ band: -2%
  mean change ± S.E. in electrical energy from pre-drug control, Δ band: -4 ± 30 instrument counts
  group percent change in electrical energy from pre-drug control, α band: -46%
  mean change ± S.E. in electrical energy from pre-drug control, α band: -52 ± 14 instrument counts
  group percent change in electrical energy from pre-drug control, β band: -19%
  mean change ± S.E. in electrical energy from pre-drug control, β band: -20 ± 5 instrument counts
  group percent change in electrical energy from pre-drug control, γ band: +13%
  mean change ± S.E. in electrical energy from pre-drug control, γ band: +10 ± 3 instrument counts
  group percent change in electrical energy from pre-drug control, θ band: -34%
  mean change ± S.E. in electrical energy from pre-drug control, θ band: -45 ± 17 instrument counts
[1]; 4.0 mg/kg free base s.c.
  group percent change in electrical energy from pre-drug control, Δ band: -8%
  mean change ± S.E. in electrical energy from pre-drug control, Δ band: -16 ± 45 instrument counts
  group percent change in electrical energy from pre-drug control, α band: -51%
  mean change ± S.E. in electrical energy from pre-drug control, α band: -63 ± 11 instrument counts
  group percent change in electrical energy from pre-drug control, β band: -12%
  mean change ± S.E. in electrical energy from pre-drug control, β band: -14 ± 4 instrument counts
  group percent change in electrical energy from pre-drug control, γ band: +35%
  mean change ± S.E. in electrical energy from pre-drug control, γ band: +25 ± 5 instrument counts
  group percent change in electrical energy from pre-drug control, θ band: -41%
  mean change ± S.E. in electrical energy from pre-drug control, θ band: -56 ± 14 instrument counts
Rabbit cortex; Oryctolagus cuniculus, iv, read-out: the minimum dose required to produce the EEG profile characteristic of that particular drug
  minimal effective dose: 0.125 mg/kg
Rabbit cortex; rabbit cortex EEG, i.v.
  relative potency by comparing minimal doses required to elicit EEG profiles: approximately four times more potent than buspirone
Rabbit cortex; rabbit cortex EEG, dose of free base
  the no-effect dose: 0.0625† mg/kg, i.v.
Rabbit cortex; 0.0625 mg/kg free base i.v.
  group percent change in electrical energy from pre-drug control, Δ band: +3%
  mean change ± S.E. in electrical energy from pre-drug control, Δ band: +7 ± 19 instrument counts
  group percent change in electrical energy from pre-drug control, α band: +6%
  mean change ± S.E. in electrical energy from pre-drug control, α band: +8 ± 10 instrument counts
  group percent change in electrical energy from pre-drug control, β band: +4%
  mean change ± S.E. in electrical energy from pre-drug control, β band: +4 ± 6 instrument counts
  group percent change in electrical energy from pre-drug control, γ band: -1%
  mean change ± S.E. in electrical energy from pre-drug control, γ band: -1 ± 2 instrument counts
  group percent change in electrical energy from pre-drug control, θ band: +6%
  mean change ± S.E. in electrical energy from pre-drug control, θ band: +3 ± 9 instrument counts
Rabbit cortex; 0.125 mg/kg free base i.v.
  group percent change in electrical energy from pre-drug control, Δ band: -36%
  mean change ± S.E. in electrical energy from pre-drug control, Δ band: -120 ± 36 instrument counts
  group percent change in electrical energy from pre-drug control, α band: -23%
  mean change ± S.E. in electrical energy from pre-drug control, α band: -47 ± 16 instrument counts
  group percent change in electrical energy from pre-drug control, β band: -22%
  mean change ± S.E. in electrical energy from pre-drug control, β band: -35 ± 6 instrument counts
  group percent change in electrical energy from pre-drug control, γ band: -7%
  mean change ± S.E. in electrical energy from pre-drug control, γ band: -9 ± 2 instrument counts
  group percent change in electrical energy from pre-drug control, θ band: -24%
  mean change ± S.E. in electrical energy from pre-drug control, θ band: -60 ± 16 instrument counts
